Reference: PubChem BioAssay (NCI)
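The concentration for 50% growth inhibition is given as GI50. TGI: total growth inhibition.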

How the values were obtained:
Assay in all cases: NCI tumour cell line growth inhibition, 384-well format
HL-60(TB) leukemia = tested on: HL-60(TB) leukemia
SN12C renal = tested on: SN12C renal
MALME-3M melanoma = tested on: MALME-3M melanoma
RXF 393 renal = tested on: RXF 393 renal
SF-268 CNS = tested on: SF-268 CNS
UACC-62 melanoma = tested on: UACC-62 melanoma
SW-620 colon = tested on: SW-620 colon
NCI-H23 lung = tested on: NCI-H23 lung
A549 NSCLC = tested on: A549 NSCLC
TK-10 renal = tested on: TK-10 renal
SF-539 CNS = tested on: SF-539 CNS
NCI/ADR-RES ovarian = tested on: NCI/ADR-RES ovarian
M14 melanoma = tested on: M14 melanoma
DU-145 prostate = tested on: DU-145 prostate
SF-295 CNS = tested on: SF-295 CNS
MDA-MB-231 breast = tested on: MDA-MB-231 breast
RPMI-8226 leukemia = tested on: RPMI-8226 leukemia
SK-MEL-5 melanoma = tested on: SK-MEL-5 melanoma
COLO 205 colon = tested on: COLO 205 colon
SNB-19 CNS = tested on: SNB-19 CNS
HT29 colon = tested on: HT29 colon
HOP-62 NSCLC = tested on: HOP-62 NSCLC
NCI-H522 lung = tested on: NCI-H522 lung
ACHN renal = tested on: ACHN renal
NCI-H226 lung = tested on: NCI-H226 lung
OVCAR-3 ovarian = tested on: OVCAR-3 ovarian
CCRF-CEM leukemia = tested on: CCRF-CEM leukemia
MDA-MB-435 melanoma = tested on: MDA-MB-435 melanoma
LOX IMVI melanoma = tested on: LOX IMVI melanoma

SMILES: Cn1ncc(-c2ccc3c(=O)[nH]nc(CN)c3c2)c1-c1c(F)cc2ccccc2c1C#N
- TGI (HL-60(TB) leukemia): 3.29 µM
- GI50 (SN12C renal): 2.17 µM
- TGI (SN12C renal): 9.35 µM
- GI50 (MALME-3M melanoma): 1.59 µM
- TGI (MALME-3M melanoma): 5.5 µM
- GI50 (RXF 393 renal): 1.69 µM
- TGI (RXF 393 renal): 8.25 µM
- GI50 (SF-268 CNS): 2.4 µM
- TGI (SF-268 CNS): 12 µM
- GI50 (UACC-62 melanoma): 2.97 µM
- TGI (UACC-62 melanoma): 14.2 µM
- GI50 (SW-620 colon): 2.54 µM
- TGI (SW-620 colon): 11.5 µM
- GI50 (NCI-H23 lung): 2.19 µM
- TGI (NCI-H23 lung): 7.34 µM
- GI50 (A549 NSCLC): 2.8 µM
- TGI (A549 NSCLC): 14 µM
- GI50 (TK-10 renal): 8.98 µM
- TGI (TK-10 renal): 21.2 µM
- GI50 (SF-539 CNS): 1.84 µM
- TGI (SF-539 CNS): 5.38 µM
- GI50 (NCI/ADR-RES ovarian): 5.21 µM
- TGI (NCI/ADR-RES ovarian): 25.1 µM
- GI50 (M14 melanoma): 2.83 µM
- TGI (M14 melanoma): 8.76 µM
- GI50 (DU-145 prostate): 3.87 µM
- TGI (DU-145 prostate): 14.9 µM
- GI50 (SF-295 CNS): 4.96 µM
- TGI (SF-295 CNS): 17.2 µM
- GI50 (MDA-MB-231 breast): 2.1 µM
- TGI (MDA-MB-231 breast): 14.4 µM
- GI50 (RPMI-8226 leukemia): 1.45 µM
- TGI (RPMI-8226 leukemia): 3.02 µM
- GI50 (SK-MEL-5 melanoma): 1.18 µM
- TGI (SK-MEL-5 melanoma): 3.27 µM
- GI50 (COLO 205 colon): 2.9 µM
- TGI (COLO 205 colon): 15.3 µM
- GI50 (SNB-19 CNS): 4.87 µM
- TGI (SNB-19 CNS): 18.8 µM
- GI50 (HT29 colon): 2.64 µM
- TGI (HT29 colon): 11.8 µM
- GI50 (HOP-62 NSCLC): 2.41 µM
- TGI (HOP-62 NSCLC): 13 µM
- GI50 (NCI-H522 lung): 2.37 µM
- TGI (NCI-H522 lung): 6.27 µM
- GI50 (ACHN renal): 2.3 µM
- TGI (ACHN renal): 11.2 µM
- GI50 (NCI-H226 lung): 3.4 µM
- TGI (NCI-H226 lung): 15.1 µM
- GI50 (OVCAR-3 ovarian): 1.77 µM
- TGI (OVCAR-3 ovarian): 5.25 µM
- GI50 (CCRF-CEM leukemia): 1.15 µM
- TGI (CCRF-CEM leukemia): 3.04 µM
- GI50 (MDA-MB-435 melanoma): 2.08 µM
- TGI (MDA-MB-435 melanoma): 4.61 µM
- GI50 (LOX IMVI melanoma): 2.73 µM
- TGI (LOX IMVI melanoma): 11.1 µM
